Reference: EP4755890A1, “OXO-TRICYCLIC DERIVATIVE AND PHARMACEUTICAL USE THEREOF” (Haisco Pharmaceutical Group Co., Ltd., priority 2023, dated 2025)
Read-outs that look alike come from different tables or passages of the source.

Legend:
CYP3A4 = molecular target: T1, CYP3A4 (Homo sapiens, UniProt P08684); assay: CYP450 enzyme activity inhibition assay, CYP3A4; assay type: in vitro ADME
T1 construct: co-incubated with human liver microsomes; from tissue; host or cells: human liver microsomes
Experimental: (§1) The purpose of this study was to evaluate the effects of the test compounds on the activities of five isoenzymes (CYP1A2, CYP2C9, CYP2C19, CYP2D6, and CYP3A4) of human liver microsomal cytochrome P450 (CYP) using an in vitro testing system. The specific probe substrates for each CYP450 isoenzyme were co-incubated with human liver microsomes and the test compounds at different concentrations, and reduced nicotinamide adenine dinucleotide phosphate (NADPH) was added to initiate the reaction. After the reactions were completed, the samples were treated, and liquid chromatography-tandem mass spectrometry (LC-MS/MS) was used to quantitatively detect metabolites produced by the specific substrates. The changes in CYP enzyme activities were determined, and the IC50 values were calculated to evaluate the inhibitory potential of the test compounds against each CYP enzyme subtype.

CYP1A2 = molecular target: T2, CYP1A2 (Homo sapiens, UniProt P05177); assay: CYP450 enzyme activity inhibition assay, CYP1A2; assay type: in vitro ADME
T2 construct: co-incubated with human liver microsomes; from tissue; host or cells: human liver microsomes
T2 sequence (P05177 1-516): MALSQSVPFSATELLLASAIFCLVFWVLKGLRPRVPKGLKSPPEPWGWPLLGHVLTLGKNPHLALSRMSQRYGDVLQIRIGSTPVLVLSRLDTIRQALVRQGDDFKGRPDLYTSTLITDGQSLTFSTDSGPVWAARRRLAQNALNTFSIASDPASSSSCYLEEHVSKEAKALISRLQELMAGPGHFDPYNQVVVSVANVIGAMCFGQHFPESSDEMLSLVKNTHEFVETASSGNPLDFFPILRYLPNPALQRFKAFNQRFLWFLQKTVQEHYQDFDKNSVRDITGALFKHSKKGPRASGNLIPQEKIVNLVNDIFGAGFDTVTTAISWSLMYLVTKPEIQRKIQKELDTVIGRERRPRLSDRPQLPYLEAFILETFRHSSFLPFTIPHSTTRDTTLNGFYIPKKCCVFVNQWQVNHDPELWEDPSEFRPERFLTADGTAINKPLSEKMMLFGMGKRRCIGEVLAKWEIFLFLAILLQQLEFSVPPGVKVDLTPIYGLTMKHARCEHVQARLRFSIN
Experimental: as §1

[1] = Mouse pharmacokinetic assay; assay type: in vivo, Balb/c mice; settings: for pharmacokinetic properties: mouse
Experimental: 4.1. Experimental animals: Male Balb/c mice, about 22 g, 6-8 weeks old, 6 mice/compound. The animals were purchased from CHENGDU DOSSY EXPERIMENTAL ANIMALS CO., LTD.
4.2. Experimental design: On the day of the experiment, the Balb/c mice were randomly grouped according to their body weights. The animals were fasted with water available for 12-14 h one day before the administration, and were fed 4 h after the administration. Table 4. Administration information
Vehicle for intravenous administration: 5% DMA + 5% Solutol + 90% Saline; and vehicle for intragastric administration: 5% DMSO + 95% (20% SBE-β-CD in Saline)
Before and after the administration, 0.03 ml of blood was taken from the orbit under isoflurane anesthesia and placed in an EDTAK2 centrifuge tube. The tube was centrifuged at 5000 rpm at 4°C for 10 min, and plasma was collected. The blood collection time points for the intravenous administration group and intragastric administration group were as follows: 0, 2 min, 5 min, 15 min, 30 min, 1 h, 2 h, 4 h, and 7 h. Before analysis and detection, all samples were stored at - 80°C. Table 5. Pharmacokinetic parameters of test compounds in mouse plasma

CYP2D6 = molecular target: T3, CYP2D6 (Homo sapiens, UniProt P10635); assay: CYP450 enzyme activity inhibition assay, CYP2D6; assay type: in vitro ADME
T3 construct: co-incubated with human liver microsomes; from tissue; host or cells: human liver microsomes
T3 sequence (P10635 whole entry): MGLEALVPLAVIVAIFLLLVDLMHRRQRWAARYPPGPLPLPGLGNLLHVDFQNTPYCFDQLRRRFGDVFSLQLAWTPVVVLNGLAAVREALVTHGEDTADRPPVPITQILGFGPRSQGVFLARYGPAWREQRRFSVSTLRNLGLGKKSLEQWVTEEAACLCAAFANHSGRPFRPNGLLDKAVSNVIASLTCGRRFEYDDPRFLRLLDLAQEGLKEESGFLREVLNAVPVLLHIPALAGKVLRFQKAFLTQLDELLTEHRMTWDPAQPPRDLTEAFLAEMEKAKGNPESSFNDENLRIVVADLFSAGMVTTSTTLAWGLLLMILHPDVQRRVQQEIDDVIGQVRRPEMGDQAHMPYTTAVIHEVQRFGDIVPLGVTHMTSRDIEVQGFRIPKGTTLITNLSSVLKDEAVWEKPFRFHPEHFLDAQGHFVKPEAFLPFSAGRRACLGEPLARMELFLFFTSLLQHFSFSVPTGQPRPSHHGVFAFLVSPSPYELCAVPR
Experimental: as §1

CYP2C9 = molecular target: T4, CYP2C9 (Homo sapiens, UniProt P11712); assay: CYP450 enzyme activity inhibition assay, CYP2C9; assay type: in vitro ADME
T4 construct: co-incubated with human liver microsomes; from tissue; host or cells: human liver microsomes
T4 sequence (P11712 whole entry): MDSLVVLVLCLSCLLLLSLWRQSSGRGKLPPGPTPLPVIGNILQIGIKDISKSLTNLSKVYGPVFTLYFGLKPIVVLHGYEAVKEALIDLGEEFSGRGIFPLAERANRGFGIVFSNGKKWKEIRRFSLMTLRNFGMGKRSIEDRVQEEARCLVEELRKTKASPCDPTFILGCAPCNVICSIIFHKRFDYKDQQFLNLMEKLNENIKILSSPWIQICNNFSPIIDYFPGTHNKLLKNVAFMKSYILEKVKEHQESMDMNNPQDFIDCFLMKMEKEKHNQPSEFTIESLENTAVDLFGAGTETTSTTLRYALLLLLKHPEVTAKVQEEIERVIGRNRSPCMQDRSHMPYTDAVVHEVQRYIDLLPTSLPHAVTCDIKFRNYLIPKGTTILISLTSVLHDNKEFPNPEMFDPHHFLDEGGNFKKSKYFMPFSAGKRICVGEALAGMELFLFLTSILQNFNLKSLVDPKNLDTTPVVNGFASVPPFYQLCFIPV
Experimental: as §1

CYP2C19 = molecular target: T5, CYP2C19 (Homo sapiens, UniProt P33261); assay: CYP450 enzyme activity inhibition assay, CYP2C19; assay type: in vitro ADME
T5 construct: co-incubated with human liver microsomes; from tissue; host or cells: human liver microsomes
T5 sequence (P33261 whole entry): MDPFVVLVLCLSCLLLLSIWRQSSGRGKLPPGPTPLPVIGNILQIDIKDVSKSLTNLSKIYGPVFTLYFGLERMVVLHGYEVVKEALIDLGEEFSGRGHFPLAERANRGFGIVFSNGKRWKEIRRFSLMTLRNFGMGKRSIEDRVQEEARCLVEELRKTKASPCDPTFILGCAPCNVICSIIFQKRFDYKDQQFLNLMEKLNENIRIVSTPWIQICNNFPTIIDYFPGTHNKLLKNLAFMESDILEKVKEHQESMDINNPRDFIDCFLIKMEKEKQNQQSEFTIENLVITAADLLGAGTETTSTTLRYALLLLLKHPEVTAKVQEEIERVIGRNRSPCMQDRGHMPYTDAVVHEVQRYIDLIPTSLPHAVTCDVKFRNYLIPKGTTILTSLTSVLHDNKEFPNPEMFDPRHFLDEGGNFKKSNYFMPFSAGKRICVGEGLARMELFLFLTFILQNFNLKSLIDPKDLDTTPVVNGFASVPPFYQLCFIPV
Experimental: as §1

SW48 cells = assay: SW48 cell proliferation inhibition assay (CellTiter-Glo); assay type: cell-based; settings: Homo sapiens, 96 h, 4 days, read-out: Inhibitory activity against SW48 cell proliferation IC50
Experimental: The culture conditions for SW48 cells were as follows: Leibovitz L15 + 10% FBS + 1% penicillin-streptomycin, and the cells were cultured in an incubator without CO2 at 37°C. On the first day, the SW48 cells in the exponential growth phase were collected and plated in 96-well cell culture plates at a density of 1000 cells/well (180 µL/well). The plates were cultured overnight in an incubator without CO2 at 37°C. T0 wells were plated simultaneously during the plating process. The next day, 20 µL of compounds at different concentrations were added to each well (nine compound concentration gradients, one DMSO well, and one blank well; each compound concentration was plated in triplicate), and the final concentration of DMSO in each well was 0.1%. The plates were cultured in an incubator without CO2 at 37°C for 4 days. On the same day of compound addition, the T0 plate was detected using the CellTiter-Glo Kit, and the detected value was recorded as RLU0. After the culture was completed, 100 µL of detection solution (Cell Viability Assay, Promega) was added to each well. The plates were incubated at room temperature for 10 minutes with slow shaking. The chemiluminescence reading was read using a BMG microplate reader (PHERAstar FSX). The results were processed according to Formula (5) to calculate the proliferation inhibition rate of compounds at each concentration. Curve fitting was performed via a four-parameter logistic model using GraphPad Prism software, and the GI50 value (the concentration of the compound when the proliferation inhibition rate was 50%) was calculated. In the formula, RLUcompound is the readout of the drug-treated group, RLUcontrol is the average value of the compound vehicle control group, and RLUBlank is the average value of the blank control group. [formula] Table 3. Results of inhibitory activity of test compounds against cell proliferation

T1 sequence (P08684 whole entry): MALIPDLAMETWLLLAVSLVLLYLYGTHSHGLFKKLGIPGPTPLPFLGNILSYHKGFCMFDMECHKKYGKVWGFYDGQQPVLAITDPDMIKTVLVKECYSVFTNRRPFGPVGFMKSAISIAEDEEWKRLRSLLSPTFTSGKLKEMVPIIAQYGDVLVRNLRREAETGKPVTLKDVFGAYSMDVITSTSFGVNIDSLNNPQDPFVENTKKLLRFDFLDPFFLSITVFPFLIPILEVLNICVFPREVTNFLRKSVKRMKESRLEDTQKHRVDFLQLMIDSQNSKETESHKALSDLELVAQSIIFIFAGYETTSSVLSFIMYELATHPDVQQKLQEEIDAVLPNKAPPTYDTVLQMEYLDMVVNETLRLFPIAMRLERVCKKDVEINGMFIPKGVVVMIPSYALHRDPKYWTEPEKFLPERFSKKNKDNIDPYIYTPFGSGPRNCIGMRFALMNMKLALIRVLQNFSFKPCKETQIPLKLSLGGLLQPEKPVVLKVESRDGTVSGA

SMILES | IC50 (CYP3A4) [µM] | IC50 (CYP1A2) [µM] | pharmacokinetic properties ([1]; result in words) | IC50 (CYP2D6) [µM] | IC50 (CYP2C9) [µM] | IC50 (CYP2C19) [µM] | IC50 (SW48 cells) [µM] | AUC(0-t) ([1]; po, mouse plasma, i.g. (10 mg/kg)) [ng·h/mL] | bioavailability ([1]; po, mouse plasma, i.g. (10 mg/kg), read-out: F (%)) [%] | bioavailability ([1]; result in words, in mice) | exposure level ([1]; result in words, in mice)
Cc1ncnc(C(=O)N2CCN(c3c4n(c5nc(C6=CCOCC6)nn5c3=O)C(C(=O)Nc3ccc(C(F)(F)F)cc3Cl)CCC4)C[C@H]2C)c1O (single isomer, unassigned) [Compound 8-B] | > 30 | > 30 | favorable | > 30 | > 30 | > 30 | < 0.1 |  |  |  | 
Cc1ncnc(C(=O)N2CCN(c3c4n(c5nc(C6=CCOCC6)nn5c3=O)[C@@H](C(=O)Nc3ccc(C(F)(F)F)cc3Cl)CCC4)CC2)c1O [Compound 1-B] | > 30 | > 30 | favorable | > 30 | > 30 | > 30 | < 0.1 |  |  |  | 
Cc1ncnc(C(=O)N2[C@@H](C)CN(c3c4n(c5nc(C6=CCOCC6)nn5c3=O)[C@@H](C(=O)Nc3ccc(C(F)(F)F)cc3Cl)CCC4)C[C@@H]2C)c1O [Compound 20-A] | > 30 | > 30 | favorable | > 30 | > 30 | > 30 | < 0.1 | 38500 | 93.4 | good | high
